The text below walks through data of US20100166772A1, “ANTIGEN-BINDING PROTEINS TARGETING S. AUREUS ORF0657n” (priority 2007, published 2010).

The structures appear in SMILES notation. Values joined by “and” are separate entries in the source; they are usually repeats but may differ in a detail not shown here. Identical values can stand only once.

In this assay the test system is S. aureus Becker. The assay can be described thus: Combination treatment vancomycin and mAb in cannulated rats, catheter bacteria load. The format is in vivo. The note with it: for Catheter CFU Exp#1 / Catheter CFU Exp#2: 24 hours. As to the method: Cannulated rats were given vancomycin (20 mpk) sub. cu. at 1 hour (1 H) prior to iv challenge with 2−4×10^9 CFU of S. aureus Becker. At 1 H post challenge, the rats were injected with 6 mg/rat of either the mAb CS-D6, an isotype control mAb 20C2HA, or PBS. At 24 hours post challenge, the animals were sacrificed, the jugular vein catheters harvested and evaluated for the bacteria load on the catheter. Evaluation of catheters was performed by placement in selective broth medium, and outgrowth on the Piccolo incubation system. Outgrowth was compared to standard curves of S. aureus growth under the same conditions to calculate the number of CFU on the experimental catheters. In the first set of experiments (Table 15), small numbers of animals were used to test the system. In the second set of experiments (Table 16), larger numbers of rats were used. […] This model was designed to simulate a clinical situation in which a patient is undergoing surgery or other invasive procedure, and getting an empiric or prophylactic antibiotic. In the model, the mAb was injected after bacteria exposure, simulating adjunctive mAb treatment for infection during surgery.

Setting [1] is: Table 15, individual rats, vancomycin 20 mpk sub. cu. 1 H prior, 6 mg/rat mAb 1 H post challenge.
The mark [2] stands for this setting: Table 16, individual rats, larger numbers of rats, vancomycin 20 mpk, 6 mg/rat mAb.

Turning to `CN[C@H](CC(C)C)C(=O)N[C@H]1C(=O)N[C@@H](CC(N)=O)C(=O)N[C@H]2C(=O)N[C@H]3C(=O)N[C@H](C(=O)N[C@H](C(=O)O)c4cc(O)cc(O)c4-c4cc3ccc4O)[C@H](O)c3ccc(c(Cl)c3)Oc3cc2cc(c3O[C@@H]2O[C@H](CO)[C@@H](O)[C@H](O)[C@H]2O[C@H]2C[C@](C)(N)[C@H](O)[C@H](C)O2)Oc2ccc(cc2Cl)[C@H]1O` [Vancomycin + PBS, vancomycin], the “Catheter CFU Exp#1” value is 0 CFU and 38,725,264 CFU under setting [1]; 64 CFU and 309 CFU and 973 CFU and 5,015 CFU and 5,108 CFU and 7,353,005 CFU under setting [2]. For the same molecule, the “Catheter CFU Exp#2” value by setting is: under setting [1], 0 CFU (3×) and 217 CFU; under setting [2], 0 CFU and 63 CFU (2×) and 291 CFU and 6,517,926 CFU and 7,829,527 CFU. The “Catheter CFU Geo mean” value (Table 16, catheters with no outgrowth assigned value of 10) is recorded as 3,368 CFU and the “Catheter CFU Geo mean” value (in vivo) was 45 CFU.
